{"source": "patent US20240358693A1", "about": "“METHODS OF TREATING PAIN” (Aisa Pharma, Inc., priority 2023, published 2024)", "test_system": "participants with SSc-RP", "assay": "Scleroderma Health Assessment Questionnaire (SHAQ): disability indices and visual analog scales", "format": "in vivo, human", "settings": "PP Population, Part A, SSc patients, sensitivity analysis", "text": "The standard, validated, patient reported outcome measures tool for SSc patients, the Scleroderma Health Assessment Questionnaire (SHAQ), will be used to assess the participant qualify of life. Details are attached in the Appendix. The participant quality of life will be scored, and a disability index calculated for each questionnaire completed by the patient at Screening and each in-clinic visit. The absolute change in participant quality of life from baseline to the end of each dosing period will be calculated similar to frequency data as before.\nThe SHAQ includes a Raynaud's VAS, which will be reported at screening and each in-clinic visit. The absolute change in Raynaud-VAS, assessed by the participants response to the SHAQ question ‘In the past 7 days, how much have your Raynaud's interfered with your daily activities?’ at baseline and the end of each dosing period will be calculated similar to frequency data as before.\nThe SHAQ is used to calculate a Disability Index to assess the participant qualify of life. The eight categories assessed by the Disability Index are 1) dressing and grooming, 2) arising, 3) eating, 4) walking, 5) hygiene, 6) reach, 7) grip, and 8) common daily activities. For each of these categories, patients report the amount of difficulty they have in performing two or three specific activities.\nThere are four possible responses for the Disability Index questions: • Without any difficulty=0 • With some difficulty=1 • With much difficulty=2 • Unable to do=3. • The highest score reported by the patient for any component question of the eight categories determines the score for that category. • If a component question is left blank or the response is too ambiguous to assign a score, then the score for that category is determined by the remaining completed question(s). • If all component questions are blank or if more than one answer is given, then follow up with the respondent is required. • If the respondent's mark is between the response columns, then move it to the closest one. If it's directly between the two, move it to the higher one.\nEach of the disability items on the SHAQ has a companion aids/devices variable that is used to record what type(s) of assistance, if any, the participant uses for his/her usual activities. These variables (see below) are coded as follows: • 0=No assistance is needed. • 1=A special device is used by the patient in his/her usual activities. • 2=The patient usually needs help from another person. • 3=The patient usually needs BOTH a special device AND help from another person.\nThe scoring variables and scoring rules permit the computation of two disability indices, the Standard Disability Index and the Alternative Disability Index.\nThis question results in a new set of category scores that are computed by adjusting the score for each category, if necessary, based on the patient's use of an aid or device or assistance for that category. If either devices and/or help from another person are checked for a category, the score is set to “2”, unless the score is already “3” (i.e., scores of “0” or “1” are increased to “2”). For example, if the highest score for the dressing category is “1”, and the patient says they use a device for dressing, the computed category score would be “2”. The sum of the computed categories scores is then calculated and divided by the number of categories answered. This gives a score in the 0 to 3 range.\nThe aid and device variables are not used to calculate the alternative disability index; it is calculated by adding the scores for each of the categories and dividing by the number of categories answered. This gives a score in the 0 to 3 range.\nThe standard, validated, patient reported outcome measures tool for SSc patients, the SHAQ, was collected at the time points specified in the study schedules (FIG. 2 and FIGS. 4A and 4B) to assess the participant's quality of life. The SHAQ included a Raynaud's VAS that will also be reported separately.", "key": {"[1]": {"settings": "Day 12 vs baseline, Subject 01-110 Day 12 score excluded"}, "[2]": {"settings": "In-Clinic Visit (Day 12), Subject 01-110 Day 12 score excluded"}}, "data": [{"smiles": "COCCOC(=O)C1=C(C)NC(C)=C(C(=O)OC/C=C/c2ccccc2)C1c1cccc([N+](=O)[O-])c1", "note": "(stereo not drawn) [Any Cilnidipine]", "values": [{"measurement": "SHAQ Visual Analogue Scale - Raynaud’s, Change from Baseline, Min", "setting": "Day 12 vs baseline", "result": "−4.10"}, {"measurement": "SHAQ Visual Analogue Scale - Raynaud’s, Change from Baseline, Q1", "setting": "Day 12 vs baseline", "result": "−1.000"}, {"measurement": "SHAQ Visual Analogue Scale - Raynaud’s, Change from Baseline, Q3", "setting": "Day 12 vs baseline", "result": 0.000}, {"measurement": "SHAQ Visual Analogue Scale - Raynaud’s, Percent Change from Baseline, Max", "setting": "Day 12 vs baseline", "result": 136.4, "unit": "%"}, {"measurement": "SHAQ Visual Analogue Scale - Raynaud’s, Percent Change from Baseline, Mean", "setting": "Day 12 vs baseline", "result": "−20.44", "unit": "%"}, {"measurement": "SHAQ Visual Analogue Scale - Raynaud’s, Percent Change from Baseline, Median", "setting": "Day 12 vs baseline", "result": "−33.33", "unit": "%"}, {"measurement": "SHAQ Visual Analogue Scale - Raynaud’s, Percent Change from Baseline, Min", "setting": "Day 12 vs baseline", "result": "−100.0", "unit": "%"}, {"measurement": "SHAQ Visual Analogue Scale - Raynaud’s, Percent Change from Baseline, Q1", "setting": "Day 12 vs baseline", "result": "−50.62", "unit": "%"}, {"measurement": "SHAQ Visual Analogue Scale - Raynaud’s, Percent Change from Baseline, Q3", "setting": "Day 12 vs baseline", "result": 0.00, "unit": "%"}, {"measurement": "SHAQ Visual Analogue Scale - Breathing Problems, Change from Baseline, Max", "setting": "[1]", "result": 3.70}, {"measurement": "SHAQ Visual Analogue Scale - Breathing Problems, Change from Baseline, Mean", "setting": "[1]", "result": 0.025}, {"measurement": "SHAQ Visual Analogue Scale - Breathing Problems, Change from Baseline, Median", "setting": "[1]", "result": 0.000}, {"measurement": "SHAQ Visual Analogue Scale - Breathing Problems, Change from Baseline, Min", "setting": "[1]", "result": "−2.00"}, {"measurement": "SHAQ Visual Analogue Scale - Breathing Problems, Change from Baseline, Q1", "setting": "[1]", "result": "−0.700"}, {"measurement": "SHAQ Visual Analogue Scale - Breathing Problems, Change from Baseline, Q3", "setting": "[1]", "result": 0.450}, {"measurement": "SHAQ Visual Analogue Scale - Breathing Problems, Percent Change from Baseline, Max", "setting": "[1]", "result": 600.0, "unit": "%"}, {"measurement": "SHAQ Visual Analogue Scale - Breathing Problems, Percent Change from Baseline, Mean", "setting": "[1]", "result": 50.12, "unit": "%"}, {"measurement": "SHAQ Visual Analogue Scale - Breathing Problems, Percent Change from Baseline, Median", "setting": "[1]", "result": "−16.00", "unit": "%"}, {"measurement": "SHAQ Visual Analogue Scale - Breathing Problems, Percent Change from Baseline, Min", "setting": "[1]", "result": "−100.0", "unit": "%"}, {"measurement": "SHAQ Visual Analogue Scale - Breathing Problems, Percent Change from Baseline, Q1", "setting": "[1]", "result": "−75.00", "unit": "%"}, {"measurement": "SHAQ Visual Analogue Scale - Breathing Problems, Percent Change from Baseline, Q3", "setting": "[1]", "result": 115.63, "unit": "%"}, {"measurement": "SHAQ Alternative Disability Index, Max", "setting": "In-Clinic Visit (Day 12)", "result": 1.50}, {"measurement": "SHAQ Alternative Disability Index, Mean", "setting": "In-Clinic Visit (Day 12)", "result": 0.450}, {"measurement": "SHAQ Alternative Disability Index, Median", "setting": "In-Clinic Visit (Day 12)", "result": 0.250}, {"measurement": "SHAQ Alternative Disability Index, Min", "setting": "In-Clinic Visit (Day 12)", "result": 0.00}, {"measurement": "SHAQ Alternative Disability Index, Q1", "setting": "In-Clinic Visit (Day 12)", "result": 0.000}, {"measurement": "SHAQ Alternative Disability Index, Q3", "setting": "In-Clinic Visit (Day 12)", "result": 0.714}, {"measurement": "SHAQ Visual Analogue Scale - Finger Ulcers, Max", "setting": "In-Clinic Visit (Day 12)", "result": 5.60}, {"measurement": "SHAQ Visual Analogue Scale - Finger Ulcers, Mean", "setting": "In-Clinic Visit (Day 12)", "result": 0.731}, {"measurement": "SHAQ Visual Analogue Scale - Finger Ulcers, Median", "setting": "In-Clinic Visit (Day 12)", "result": 0.000}, {"measurement": "SHAQ Visual Analogue Scale - Finger Ulcers, Min", "setting": "In-Clinic Visit (Day 12)", "result": 0.00}, {"measurement": "SHAQ Visual Analogue Scale - Finger Ulcers, Q1", "setting": "In-Clinic Visit (Day 12)", "result": 0.000}, {"measurement": "SHAQ Visual Analogue Scale - Finger Ulcers, Q3", "setting": "In-Clinic Visit (Day 12)", "result": 0.900}, {"measurement": "SHAQ Visual Analogue Scale - Intestinal Problems, Max", "setting": "In-Clinic Visit (Day 12)", "result": 4.50}, {"measurement": "SHAQ Visual Analogue Scale - Intestinal Problems, Mean", "setting": "In-Clinic Visit (Day 12)", "result": 1.121}, {"measurement": "SHAQ Visual Analogue Scale - Intestinal Problems, Median", "setting": "In-Clinic Visit (Day 12)", "result": 0.600}, {"measurement": "SHAQ Visual Analogue Scale - Intestinal Problems, Min", "setting": "In-Clinic Visit (Day 12)", "result": 0.00}, {"measurement": "SHAQ Visual Analogue Scale - Intestinal Problems, Q1", "setting": "In-Clinic Visit (Day 12)", "result": 0.000}, {"measurement": "SHAQ Visual Analogue Scale - Intestinal Problems, Q3", "setting": "In-Clinic Visit (Day 12)", "result": 1.900}, {"measurement": "SHAQ Visual Analogue Scale - Overall Disease Severity, Max", "setting": "In-Clinic Visit (Day 12)", "result": 7.30}, {"measurement": "SHAQ Visual Analogue Scale - Overall Disease Severity, Mean", "setting": "In-Clinic Visit (Day 12)", "result": 2.203}, {"measurement": "SHAQ Visual Analogue Scale - Overall Disease Severity, Median", "setting": "In-Clinic Visit (Day 12)", "result": 1.400}, {"measurement": "SHAQ Visual Analogue Scale - Overall Disease Severity, Min", "setting": "In-Clinic Visit (Day 12)", "result": 0.00}, {"measurement": "SHAQ Visual Analogue Scale - Overall Disease Severity, Q1", "setting": "In-Clinic Visit (Day 12)", "result": 0.800}, {"measurement": "SHAQ Visual Analogue Scale - Overall Disease Severity, Q3", "setting": "In-Clinic Visit (Day 12)", "result": 3.050}, {"measurement": "SHAQ Visual Analogue Scale - Pain, Max", "setting": "In-Clinic Visit (Day 12)", "result": 5.50}, {"measurement": "SHAQ Visual Analogue Scale - Pain, Mean", "setting": "In-Clinic Visit (Day 12)", "result": 2.476}, {"measurement": "SHAQ Visual Analogue Scale - Pain, Median", "setting": "In-Clinic Visit (Day 12)", "result": 2.200}, {"measurement": "SHAQ Visual Analogue Scale - Pain, Min", "setting": "In-Clinic Visit (Day 12)", "result": 0.00}, {"measurement": "SHAQ Visual Analogue Scale - Pain, Q1", "setting": "In-Clinic Visit (Day 12)", "result": 1.000}, {"measurement": "SHAQ Visual Analogue Scale - Pain, Q3", "setting": "In-Clinic Visit (Day 12)", "result": 3.800}, {"measurement": "SHAQ Visual Analogue Scale - Raynaud’s, Max", "setting": "In-Clinic Visit (Day 12)", "result": 5.20}, {"measurement": "SHAQ Visual Analogue Scale - Raynaud’s, Mean", "setting": "In-Clinic Visit (Day 12)", "result": 2.022}, {"measurement": "SHAQ Visual Analogue Scale - Raynaud’s, Median", "setting": "In-Clinic Visit (Day 12)", "result": 1.400}, {"measurement": "SHAQ Visual Analogue Scale - Raynaud’s, Min", "setting": "In-Clinic Visit (Day 12)", "result": 0.00}, {"measurement": "SHAQ Visual Analogue Scale - Raynaud’s, Q1", "setting": "In-Clinic Visit (Day 12)", "result": 0.500}, {"measurement": "SHAQ Visual Analogue Scale - Raynaud’s, Q3", "setting": "In-Clinic Visit (Day 12)", "result": 4.000}, {"measurement": "SHAQ Visual Analogue Scale - Breathing Problems, Max", "setting": "[2]", "result": 6.90}, {"measurement": "SHAQ Visual Analogue Scale - Breathing Problems, Mean", "setting": "[2]", "result": 1.388}, {"measurement": "SHAQ Visual Analogue Scale - Breathing Problems, Median", "setting": "[2]", "result": 0.300}, {"measurement": "SHAQ Visual Analogue Scale - Breathing Problems, Min", "setting": "[2]", "result": 0.00}, {"measurement": "SHAQ Visual Analogue Scale - Breathing Problems, Q1", "setting": "[2]", "result": 0.000}, {"measurement": "SHAQ Visual Analogue Scale - Breathing Problems, Q3", "setting": "[2]", "result": 1.800}]}]}
